Data: ChEMBL document CHEMBL3044652, “Synthesis of novel 2-alkyl-4-substituted-amino-pyrazolo[3,4-d]pyrimidines as new leads for anti-bacterial and anti-cancer activity” (2013)

How the values were obtained:
Format in all cases: functional
Bacillus subtilis = assay: Antibacterial activity against Bacillus subtilis NCIM 2545 at 20 ug/ml after 24 hr by agar diffusion method; conditions: NCIM 2545, 24 h, read-out: IZ
G-361 [1] = assay: Cytotoxicity against Homo sapiens (human) G361 cells assessed as cell growth at 10^-5 M by SRB assay relative to control; conditions: read-out: Activity
G-361 [2] = assay: Cytotoxicity against Homo sapiens (human) G361 cells by SRB assay
G-361 [3] = assay: Cytotoxicity against Homo sapiens (human) G361 cells assessed as cell growth at 10^-7 M by SRB assay relative to control; conditions: read-out: Activity
G-361 [4] = assay: Cytotoxicity against Homo sapiens (human) G361 cells assessed as cell growth at 10^-4 M by SRB assay relative to control; conditions: read-out: Activity
Escherichia coli = assay: Antibacterial activity against Escherichia coli NCIM 2803 at 20 ug/ml after 24 hr by agar diffusion method; conditions: NCIM 2803, 24 h, read-out: IZ
G-361 [5] = assay: Cytotoxicity against Homo sapiens (human) G361 cells assessed as cell growth at 10^-6 M by SRB assay relative to control; conditions: read-out: Activity
[6] = test system: Staphylococcus epidermidis; assay: Antibacterial activity against Staphylococcus epidermidis NCIM 2493 at 20 ug/ml after 24 hr by agar diffusion method; conditions: NCIM 2493, 24 h, read-out: IZ
Staphylococcus aureus = assay: Antibacterial activity against Staphylococcus aureus NCIM 5021 at 20 ug/ml after 24 hr by agar diffusion method; conditions: NCIM 5021, 24 h, read-out: IZ

With c1ccc(NCc2nc(Nc3ccccc3)c3cnn(-c4ccccc4)c3n2)cc1 the zone of inhibition at 20 µg/mL (Bacillus subtilis) was 13.6 mm, the growth at 10 µM (G-361 [1]) was 99.7% and the GI50 (G-361 [2]) was > 100 µM. The LC50 (G-361 [2]) was > 100 µM, the TGI (G-361 [2]) was > 100 µM and the growth at 0.1 µM (G-361 [3]) was 100%. It also gave a growth at 100 µM (G-361 [4]) of 48.5%, a zone of inhibition at 20 µg/mL (Escherichia coli) of 13.3 mm and a growth at 1 µM (G-361 [5]) of 100%. The zone of inhibition at 20 µg/mL [6] was 13 mm and the zone of inhibition at 20 µg/mL (Staphylococcus aureus) was 13.2 mm.
With c1ccc(-n2ncc3c(N4CCOCC4)ncnc32)cc1 the zone of inhibition at 20 µg/mL (Bacillus subtilis) was 12.8 mm, the growth at 10 µM (G-361 [1]) was 100% and the GI50 (G-361 [2]) was > 100 µM. The LC50 (G-361 [2]) was > 100 µM, the TGI (G-361 [2]) was > 100 µM and the growth at 0.1 µM (G-361 [3]) was 100%. For the same compound, the growth at 100 µM (G-361 [4]) was 61.5%, the zone of inhibition at 20 µg/mL (Escherichia coli) was 13.3 mm and the growth at 1 µM (G-361 [5]) was 100%. For the same compound, the zone of inhibition at 20 µg/mL [6] was 12.7 mm and the zone of inhibition at 20 µg/mL (Staphylococcus aureus) was 13.6 mm.
CCCNc1nc(C)nc2c1cnn2-c1ccccc1 was tested, and the zone of inhibition at 20 µg/mL (Bacillus subtilis) was 13 mm, the growth at 10 µM (G-361 [1]) was 100% and the GI50 (G-361 [2]) was 36 µM. The LC50 (G-361 [2]) was > 100 µM, the TGI (G-361 [2]) was > 100 µM and the growth at 0.1 µM (G-361 [3]) was 100%. For the same compound, the growth at 100 µM (G-361 [4]) was 25.3%, the zone of inhibition at 20 µg/mL (Escherichia coli) was 12.7 mm and the growth at 1 µM (G-361 [5]) was 100%. It also gave a zone of inhibition at 20 µg/mL [6] of 13.6 mm and a zone of inhibition at 20 µg/mL (Staphylococcus aureus) of 13.6 mm.
Cc1nc(NC(C)C)c2cnn(-c3ccccc3)c2n1 was tested, and the zone of inhibition at 20 µg/mL (Bacillus subtilis) was 13.6 mm, the growth at 10 µM (G-361 [1]) was 100% and the GI50 (G-361 [2]) was 32 µM. For the same compound, the LC50 (G-361 [2]) was > 100 µM, the TGI (G-361 [2]) was > 100 µM and the growth at 0.1 µM (G-361 [3]) was 100%. For the same compound, the growth at 100 µM (G-361 [4]) was 13.5%, the zone of inhibition at 20 µg/mL (Escherichia coli) was 13 mm and the growth at 1 µM (G-361 [5]) was 100%. It also gave a zone of inhibition at 20 µg/mL [6] of 13.7 mm and a zone of inhibition at 20 µg/mL (Staphylococcus aureus) of 13.3 mm.
Cc1nc(NCc2ccco2)c2cnn(-c3ccccc3)c2n1 was tested, and the zone of inhibition at 20 µg/mL (Bacillus subtilis) was 12.5 mm, the growth at 10 µM (G-361 [1]) was 100% and the GI50 (G-361 [2]) was 39 µM. For the same compound, the LC50 (G-361 [2]) was > 100 µM, the TGI (G-361 [2]) was > 100 µM and the growth at 0.1 µM (G-361 [3]) was 100%. For the same compound, the growth at 100 µM (G-361 [4]) was 30.1%, the zone of inhibition at 20 µg/mL (Escherichia coli) was 13.6 mm and the growth at 1 µM (G-361 [5]) was 100%. It also gave a zone of inhibition at 20 µg/mL [6] of 13.3 mm and a zone of inhibition at 20 µg/mL (Staphylococcus aureus) of 12.7 mm.
For Cc1nc(N2CCOCC2)c2cnn(-c3ccccc3)c2n1, the zone of inhibition at 20 µg/mL (Bacillus subtilis) was 13.6 mm, the growth at 10 µM (G-361 [1]) was 99.8% and the GI50 (G-361 [2]) was > 100 µM. The LC50 (G-361 [2]) was > 100 µM, the TGI (G-361 [2]) was > 100 µM and the growth at 0.1 µM (G-361 [3]) was 100%. The growth at 100 µM (G-361 [4]) was 43.9%, the zone of inhibition at 20 µg/mL (Escherichia coli) was 12.7 mm and the growth at 1 µM (G-361 [5]) was 100%. It also gave a zone of inhibition at 20 µg/mL [6] of 13.6 mm and a zone of inhibition at 20 µg/mL (Staphylococcus aureus) of 13.3 mm.
In the case of Cc1nc(Nc2ccccc2)c2cnn(-c3ccccc3)c2n1, the zone of inhibition at 20 µg/mL (Bacillus subtilis) is reported as 13.6 mm, the growth at 10 µM (G-361 [1]) is reported as 100% and the GI50 (G-361 [2]) is reported as > 100 µM. The LC50 (G-361 [2]) was > 100 µM, the TGI (G-361 [2]) was > 100 µM and the growth at 0.1 µM (G-361 [3]) was 100%. It also gave a growth at 100 µM (G-361 [4]) of 65.6%, a zone of inhibition at 20 µg/mL (Escherichia coli) of 13.3 mm and a growth at 1 µM (G-361 [5]) of 100%. It also gave a zone of inhibition at 20 µg/mL [6] of 13.6 mm and a zone of inhibition at 20 µg/mL (Staphylococcus aureus) of 13.4 mm.
For CCN(CC)c1nc(C)nc2c1cnn2-c1ccccc1, the zone of inhibition at 20 µg/mL (Bacillus subtilis) was 13.1 mm, the growth at 10 µM (G-361 [1]) was 100% and the GI50 (G-361 [2]) was > 100 µM. The LC50 (G-361 [2]) was > 100 µM, the TGI (G-361 [2]) was > 100 µM and the growth at 0.1 µM (G-361 [3]) was 100%. The growth at 100 µM (G-361 [4]) was 61.8%, the zone of inhibition at 20 µg/mL (Escherichia coli) was 13.6 mm and the growth at 1 µM (G-361 [5]) was 100%. The zone of inhibition at 20 µg/mL [6] was 13.3 mm and the zone of inhibition at 20 µg/mL (Staphylococcus aureus) was 13.7 mm.
In the case of Cc1nc(NCc2ccccc2)c2cnn(-c3ccccc3)c2n1, the zone of inhibition at 20 µg/mL (Bacillus subtilis) is reported as 13.3 mm, the growth at 10 µM (G-361 [1]) is reported as 100% and the GI50 (G-361 [2]) is reported as > 100 µM. The LC50 (G-361 [2]) was > 100 µM, the TGI (G-361 [2]) was > 100 µM and the growth at 0.1 µM (G-361 [3]) was 100%. It also gave a growth at 100 µM (G-361 [4]) of 45.5%, a zone of inhibition at 20 µg/mL (Escherichia coli) of 12.6 mm and a growth at 1 µM (G-361 [5]) of 100%. It also gave a zone of inhibition at 20 µg/mL [6] of 12.7 mm and a zone of inhibition at 20 µg/mL (Staphylococcus aureus) of 13.1 mm.
CCNc1nc(C)nc2c1cnn2-c1ccccc1 was tested, and the zone of inhibition at 20 µg/mL (Bacillus subtilis) was 13.3 mm, the growth at 10 µM (G-361 [1]) was 99.6% and the GI50 (G-361 [2]) was 38.7 µM. The LC50 (G-361 [2]) was > 100 µM, the TGI (G-361 [2]) was > 100 µM and the growth at 0.1 µM (G-361 [3]) was 100%. It also gave a growth at 100 µM (G-361 [4]) of 29.2%, a zone of inhibition at 20 µg/mL (Escherichia coli) of 13.4 mm and a growth at 1 µM (G-361 [5]) of 100%. For the same compound, the zone of inhibition at 20 µg/mL [6] was 13.3 mm and the zone of inhibition at 20 µg/mL (Staphylococcus aureus) was 13.3 mm.
COc1ccccc1Nc1nc(C)nc2c1cnn2-c1ccccc1 was tested, and the zone of inhibition at 20 µg/mL (Bacillus subtilis) was 13.4 mm, the zone of inhibition at 20 µg/mL (Escherichia coli) was 13.5 mm and the zone of inhibition at 20 µg/mL [6] was 13.6 mm. It also gave a zone of inhibition at 20 µg/mL (Staphylococcus aureus) of 13.3 mm.
Compound CCCNc1nc(CC)nc2c1cnn2-c1ccccc1 has a zone of inhibition at 20 µg/mL (Bacillus subtilis) of 13 mm, a growth at 10 µM (G-361 [1]) of 84.7% and a GI50 (G-361 [2]) of 2.2 µM. The LC50 (G-361 [2]) was > 100 µM, the TGI (G-361 [2]) was 37 µM and the growth at 0.1 µM (G-361 [3]) was 100%. The growth at 100 µM (G-361 [4]) was -34.7%, the zone of inhibition at 20 µg/mL (Escherichia coli) was 13.6 mm and the growth at 1 µM (G-361 [5]) was 94.7%. It also gave a zone of inhibition at 20 µg/mL [6] of 13.3 mm and a zone of inhibition at 20 µg/mL (Staphylococcus aureus) of 13.3 mm.
With COc1cccc2c1C(=O)c1c(O)c3c(c(O)c1C2=O)C[C@@](O)(C(=O)CO)C[C@@H]3O[C@H]1C[C@H](N)[C@H](O)[C@H](C)O1 [DOXORUBICIN] the growth at 10 µM (G-361 [1]) was -64.2%, the GI50 (G-361 [2]) was < 0.1 µM and the TGI (G-361 [2]) was < 0.1 µM. The growth at 0.1 µM (G-361 [3]) was -24%, the growth at 100 µM (G-361 [4]) was -70.7% and the growth at 1 µM (G-361 [5]) was -62.5%.
